Measurements reported in patent US9777008B2, “PRMT5 inhibitors and uses thereof” (Epizyme, Inc., priority 2012, dated 2017).

Columns and labels:
[1] = test system: Z-138 cell line; assay: Z-138 Proliferation Assay (Cell-Titer Glo, 5 days); format: cell-based; conditions: Z-138 cells
Text: [formula] Z-138 Proliferation Assay
Z-138 suspension cells were purchased from ATCC (American Type Culture Collection, Manassas, Va.). RPMI/Glutamax medium, penicillin-streptomycin, heat inactivated fetal bovine serum were purchased from Life Technologies, Grand Island, N.Y., USA. V-bottom polypropylene 384-well plates were purchased from Greiner Bio-One, Monroe, N.C., USA. Cell culture 384-well white opaque plates were purchased from Perkin Elmer, Waltham, Mass., USA. Cell-Titer Glo® was purchased from Promega Corporation, Madison, Wis., USA. SpectraMax M5 plate reader was purchased from Molecular Devices LLC, Sunnyvale, Calif., USA. […] Cell viability was measured by quantitation of ATP present in the cell cultures, adding […] of Cell Titer Glo® reagent to the cell plates. Luminescence was read in the SpectraMax M5 microplate reader. The concentration of compound inhibiting cell viability by 50% was determined using a 4-parametric fit of the normalized dose response curves.

[2] = test system: symmetric di-methyl arginine in Z-138 cells; assay: Z-138 Methylation Assay (In Cell Western for symmetric di-methyl arginine and DNA content); format: cell-based; conditions: read-out: ICW EC50
Text: [formula] [formula] Where top and bottom are the normally allowed to float, but may be fixed at 100 or 0 respectively in a 3-parameter fit. The Hill Coefficient normally allowed to float but may also be fixed at 1 in a 3-parameter fit. Y is the % inhibition and X is the compound concentration. Z-138 Methylation Assay
Z-138 suspension cells were purchased from ATCC (American Type Culture Collection, Manassas, Va.). RPMI/Glutamax medium, penicillin-streptomycin, heat inactivated fetal bovine serum, and D-PBS were purchased from Life Technologies, Grand Island, N.Y., USA. Odyssey blocking buffer, 800CW goat anti-rabbit IgG (H+L) antibody, and Licor Odyssey infrared scanner were purchased from Licor Biosciences, Lincoln, Nebr., USA. Symmetric di-methyl arginine antibody was purchased from EMD Millipore, Billerica, Mass., USA. 16% Paraformaldehyde was purchased from Electron Microscopy Sciences, Hatfield, Pa., USA. Z-138 suspension cells were maintained in growth medium (RPMI 1640 supplemented with 10% v/v heat inactivated fetal bovine serum and 100 units/mL penicillin-streptomycin) and cultured at 37° C. under 5% CO2.
Cell Treatment, in Cell Western (ICW) for Detection of Symmetric Di-Methyl Arginine and DNA Content.
Z-138 cells were seeded in assay medium at a concentration of 50,000 cells per mL to a 384-well cell culture plate with 50 μL per well. Compound (100 nL) from 384 well source plates was added directly to 384 well cell plate. Plates were incubated at 37° C., 5% CO2 for 96 hours. […]
First, the ratio for each well was determined by:
Each plate included fourteen control wells of DMSO only treatment (minimum inhibition) as well as fourteen control wells for maximum inhibition treated with 3 μM of a reference compound (Background wells). The average of the ratio values for each control type was calculated and used to determine the percent inhibition for each test well in the plate. […] Percent inhibition was determined and IC50 curves were generated using triplicate wells per concentration of compound. […]

| Compound | EC50 [1] [µM] | EC50 [2] [µM] |
| --- | --- | --- |
| OC(COc1cccc(-c2ccc3cn[nH]c3c2)c1)CN1CCc2ccccc2C1 (stereo not shown) [Compound 58, 1-(3-(1H-indazol-6-yl)phenoxy)-3-(3,4-dihydroisoquinolin-2(1H)-yl)propan-2-ol] | 10 to 40 | 1 to 10 |
| N-(3-(3-(3,4-dihydroisoquinolin-2(1H)-yl)-2-hydroxypropoxy)phenyl)pyrimidine-5-carboxamide [Compound 145] | > 20 | 1 to 10 |
